Assay results reported in ChEMBL document CHEMBL1201862, “PubChem BioAssay data set” (2004).
The source made the active and inactive calls.

Legend:
Format in all cases: functional
[1] = target: T1, Replicative DNA helicase DnaB (Mycobacterium tuberculosis, UniProt P9WMR3); assay: DnaB intein splicing inhibitors, dose response, biochemical, cell-free fluorescence (AID 449749)
T1 sequence (P9WMR3 whole entry): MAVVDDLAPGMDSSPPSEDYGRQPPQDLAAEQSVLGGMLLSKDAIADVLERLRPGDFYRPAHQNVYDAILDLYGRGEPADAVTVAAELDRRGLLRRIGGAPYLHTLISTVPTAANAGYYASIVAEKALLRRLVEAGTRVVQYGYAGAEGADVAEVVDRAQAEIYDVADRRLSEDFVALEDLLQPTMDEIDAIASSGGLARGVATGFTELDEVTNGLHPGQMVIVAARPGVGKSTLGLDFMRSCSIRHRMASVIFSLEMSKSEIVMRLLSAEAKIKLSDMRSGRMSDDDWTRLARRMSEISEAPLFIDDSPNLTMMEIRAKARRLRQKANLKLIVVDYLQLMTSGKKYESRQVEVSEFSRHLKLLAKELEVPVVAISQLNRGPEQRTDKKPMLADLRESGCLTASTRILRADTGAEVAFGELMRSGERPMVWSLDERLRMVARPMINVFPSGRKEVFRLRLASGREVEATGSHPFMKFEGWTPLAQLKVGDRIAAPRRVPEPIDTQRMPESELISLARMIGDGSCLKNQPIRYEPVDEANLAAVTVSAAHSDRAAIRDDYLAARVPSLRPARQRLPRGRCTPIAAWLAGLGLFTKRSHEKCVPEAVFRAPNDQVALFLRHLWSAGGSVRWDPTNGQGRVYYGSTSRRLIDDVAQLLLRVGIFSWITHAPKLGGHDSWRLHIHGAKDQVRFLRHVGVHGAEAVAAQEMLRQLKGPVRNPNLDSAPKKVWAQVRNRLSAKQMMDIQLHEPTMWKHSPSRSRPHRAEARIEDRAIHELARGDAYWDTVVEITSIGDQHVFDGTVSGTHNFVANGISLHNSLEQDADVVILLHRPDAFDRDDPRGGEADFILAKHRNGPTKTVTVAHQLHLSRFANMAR

[2] = target: T2, Apoptotic protease-activating factor 1 (Homo sapiens, UniProt O14727)
T2 sequence (O14727 whole entry): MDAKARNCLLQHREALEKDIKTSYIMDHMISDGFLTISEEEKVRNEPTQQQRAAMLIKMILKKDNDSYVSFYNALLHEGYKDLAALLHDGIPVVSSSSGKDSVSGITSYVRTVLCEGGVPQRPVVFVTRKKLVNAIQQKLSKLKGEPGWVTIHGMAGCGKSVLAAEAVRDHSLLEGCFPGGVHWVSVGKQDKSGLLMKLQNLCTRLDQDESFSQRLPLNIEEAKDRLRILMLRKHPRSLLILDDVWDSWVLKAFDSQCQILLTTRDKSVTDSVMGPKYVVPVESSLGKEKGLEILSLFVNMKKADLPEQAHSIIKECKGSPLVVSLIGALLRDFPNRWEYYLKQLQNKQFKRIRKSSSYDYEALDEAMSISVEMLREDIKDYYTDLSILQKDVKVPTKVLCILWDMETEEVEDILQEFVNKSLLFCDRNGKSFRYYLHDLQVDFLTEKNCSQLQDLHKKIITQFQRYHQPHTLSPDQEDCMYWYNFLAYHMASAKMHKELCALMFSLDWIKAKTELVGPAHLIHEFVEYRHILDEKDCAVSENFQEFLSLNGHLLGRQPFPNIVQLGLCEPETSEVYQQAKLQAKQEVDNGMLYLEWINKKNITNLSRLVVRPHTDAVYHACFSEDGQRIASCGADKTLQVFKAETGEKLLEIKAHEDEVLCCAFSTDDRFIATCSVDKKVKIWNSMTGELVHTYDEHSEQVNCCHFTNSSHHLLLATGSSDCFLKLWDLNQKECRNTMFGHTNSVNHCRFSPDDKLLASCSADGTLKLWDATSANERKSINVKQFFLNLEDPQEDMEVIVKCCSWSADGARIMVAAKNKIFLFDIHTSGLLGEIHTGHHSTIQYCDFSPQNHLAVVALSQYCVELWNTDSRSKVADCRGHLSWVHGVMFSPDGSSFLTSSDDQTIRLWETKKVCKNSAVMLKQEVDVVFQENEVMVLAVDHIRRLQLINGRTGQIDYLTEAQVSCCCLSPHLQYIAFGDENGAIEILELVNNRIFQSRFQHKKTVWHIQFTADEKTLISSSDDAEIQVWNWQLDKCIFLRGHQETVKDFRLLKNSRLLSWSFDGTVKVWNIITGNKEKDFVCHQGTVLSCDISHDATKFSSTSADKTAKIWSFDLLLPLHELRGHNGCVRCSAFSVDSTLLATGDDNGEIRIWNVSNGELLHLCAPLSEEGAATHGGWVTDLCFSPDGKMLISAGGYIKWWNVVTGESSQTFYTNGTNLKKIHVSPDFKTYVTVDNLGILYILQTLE

[3] = target: Induced myeloid leukemia cell differentiation protein Mcl-1 (Homo sapiens, UniProt Q07820)
Induced myeloid leukemia cell differentiation protein Mcl-1, sequence (Q07820 whole entry): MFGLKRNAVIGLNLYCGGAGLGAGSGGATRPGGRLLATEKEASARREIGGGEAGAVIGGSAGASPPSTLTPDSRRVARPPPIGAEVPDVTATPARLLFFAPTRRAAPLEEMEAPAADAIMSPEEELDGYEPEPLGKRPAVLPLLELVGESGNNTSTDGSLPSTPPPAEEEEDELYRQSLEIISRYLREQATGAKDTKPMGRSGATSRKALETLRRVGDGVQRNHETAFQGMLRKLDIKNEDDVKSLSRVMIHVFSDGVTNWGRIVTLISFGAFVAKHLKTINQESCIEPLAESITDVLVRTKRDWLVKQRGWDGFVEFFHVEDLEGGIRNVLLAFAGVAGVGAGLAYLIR

Structure (SMILES)	AC50 [1]	IC50 [2]	IC50 [3]
COC(=O)c1ccc(-c2ccc(C(c3c(C)[nH][nH]c3=O)c3c(C)[nH][nH]c3=O)o2)cc1	0.595 µM (inconclusive)	23.9 µM (active)	
Oc1ccc(/C=N/NC(=S)Nc2cccnc2)c(O)c1O			19.5 µM (active)
